Laboratory results as given in US20110262368A1, “C21 THIOETHERS AS GLUCOCORTICOID RECEPTOR AGONISTS” (Schering Corporation, priority 2007, published 2011).
Where two headings read alike, the source gives them in different places.

Experiments:
[1] = cited from earlier work
Male Brown Norway Rats = details: rat, in vivo, ip, 2 days
Description: Thymus weight reduction studies were performed in accordance to the NIH GUIDE TO THE CARE AND USE OF LABORATORY ANIMALS and the Animal Welfare Act in an AAALAC-accredited program. Male Brown Norway Rats (200-250 g, Charles River, Bloomington, Mass., USA) were used in these studies. The effect of test steroid compounds compared to a control group was studied on thymus involution. […] Rats were dosed i.p. with test compound QD for two days. Twenty four hours after the 2nd dose, animals were euthanized with pentobarbital (125 mg/kg, i.p.). The thymus were removed and weighed and the results expressed as a percentage thymus involution. Doses are expressed in mg/kg. “NS” means not statistically significant.

SMILES: Oc1cccc(Nc2ncc(F)c(Nc3cccc(O)c3)n2)c1 [Example R112]
- improvement from baseline measurements of symptoms associated with chronic nasal congestion ([1]; from baseline (prior to drug initiation)): up to 38%
- absolute difference over placebo, symptoms associated with chronic nasal congestion ([1]; versus placebo, absolute): 9%
- relative improvement over placebo, symptoms associated with chronic nasal congestion ([1]; versus placebo, relative): greater than 20%

SMILES: CC12CCC(=O)C=C1CCC1C2[C@@H](O)CC2(C)C1CC[C@]2(O)C(=O)CSc1nc2ccccc2s1 (stereo partly drawn) [Inventive Compound A]
- % Thymus Involution (Male Brown Norway Rats; 30 mg/kg): −4 ± 7%

SMILES: CC12C[C@H](O)[C@@]3(F)C(CCC4=CC(=O)CCC43C)C1CC[C@]2(O)C(=O)CSc1nc2ccccc2s1 (stereo partly drawn) [Inventive Compound B]
- % Thymus Involution (Male Brown Norway Rats; 30 mg/kg): 10 ± 4%

SMILES: C[C@@H]1CC2C3CCC4=CC(=O)C=CC4(C)[C@@]3(F)[C@@H](O)CC2(C)[C@@]1(O)C(=O)CSc1nc2ccccc2s1 (stereo partly drawn) [US′120]
- % Thymus Involution (Male Brown Norway Rats; 10 mg/kg): 62 ± 3%
